Measured values published in patent US9771352B2, “Hydroxyalkyl-substituted phenyltriazole derivatives and uses thereof” (BAYER PHARMA AKTIENGESELLSCHAFT, priority 2014, dated 2017).
pIC50: −log10 of the molar value.

Tests used:
[1] = target: T1, human V1a receptor (Homo sapiens, UniProt P37288); assay: Cellular in vitro assay for determining vasopressin receptor activity, V1a receptor cell line (photoprotein luminescence); assay type: cell-based; conditions: CHO cell line transfected with human V1a receptor; [Arg8]-vasopressin at EC50; compounds of the invention (Table 1A); read-out: IC50 hV1a
T1 construct: expressed in transfected cells; host or cells: CHO K1 (ATCC), also stably transfected with modified aequorin
Experimental: (§1) The identification of agonists and antagonists of the V1a and V2 vasopressin receptors from humans, rats and dogs as well as the quantification of the activity of the compounds of the invention is carried out using recombinant cell lines. These cell lines originally derive from a hamster's ovary epithelial cell (Chinese Hamster Ovary, CHO K1, ATCC: American Type Culture Collection, Manassas, Va. 20108, USA). The test cell lines constitutively express the human, rat or dog V1a or V2 receptors. In case of the […] V1a receptors, cells are also stably transfected with a modified form of the calcium-sensitive photoproteins aequorin (human and rat V1a) or obelin (dog V1a), which, after reconstitution with the cofactor coelenterazine, emit light when there are increases in free calcium concentrations [Rizzuto R, Simpson A W, Brini M, Pozzan T, Nature 358, 325-327 (1992); Illarionov B A, Bondar V S, Illarionova V A, Vysotski E S, Gene 153 (2), 273-274 (1995)]. The resulting vasopressin receptor cells react to stimulation of the recombinantly expressed V1a receptors by intracellular release of calcium ions, which can be quantified by the resulting photoprotein luminescence. The Gs-coupled V2 receptors are stably transfected into cell lines expressing the gene for firefly luciferase under control of a CRE-responsible promoter. Activation of V2 receptors induces the activation of the CRE-responsive promoter via cAMP increase, thereby inducing the expression of firefly luciferase. The light emitted by photoproteins of V1a cell lines as well as the light emitted by firefly luciferase of V2 cell lines corresponds to the activation or inhibition of the respective vasopressin receptor. The bioluminescence of the cell lines is detected using a suitable luminometer [Milligan G, Marshall F, Rees S, Trends in Pharmacological Sciences 17, 235-237 (1996)].
On the day before the assay, the cells are plated out in culture medium (DMEM/F12, 2% FCS, 2 mM glutamine, 10 mM HEPES, 5 μg/ml coelenterazine) in 384-well microtiter plates and kept in a cell incubator (96% humidity, 5% v/v CO2, 37° C.). On the day of the assay, test compounds in various concentrations are placed for 10 minutes in the wells of the microtiter plate before the agonist [Arg^8]-vasopressin at EC50 concentration is added. The resulting light signal is measured immediately in the luminometer.
(§2) Table 1A below lists individual IC50 values for the compounds of the invention (including diastereomeric mixtures as well as separated, enantiopure diastereomers) that were obtained from cell lines transfected with the human V1a or V2 receptor: […]

[2] = target: T2, human V2 receptor (Homo sapiens, UniProt P30518); assay: Cellular in vitro assay for determining vasopressin receptor activity, V2 receptor cell line (CRE-luciferase); assay type: cell-based; conditions: CHO cell line transfected with human V2 receptor; [Arg8]-vasopressin at EC50; compounds of the invention (Table 1A); read-out: IC50 hV2
T2 construct: expressed in transfected cells; host or cells: CHO K1 (ATCC) expressing firefly luciferase under a CRE-responsive promoter
Experimental: as §1
On the day before the assay, the cells are plated out in culture medium (DMEM/F12, 2% FCS, 2 mM glutamine, 10 mM HEPES) in 384-well microtiter plates and kept in a cell incubator (96% humidity, 5% v/v CO2, 37° C.). […] Upon addition of the cell lysis reagent Triton and the substrate luciferin, luminescence of firefly luciferase is measured in a luminometer.
as §2

T1 sequence (P37288 whole entry): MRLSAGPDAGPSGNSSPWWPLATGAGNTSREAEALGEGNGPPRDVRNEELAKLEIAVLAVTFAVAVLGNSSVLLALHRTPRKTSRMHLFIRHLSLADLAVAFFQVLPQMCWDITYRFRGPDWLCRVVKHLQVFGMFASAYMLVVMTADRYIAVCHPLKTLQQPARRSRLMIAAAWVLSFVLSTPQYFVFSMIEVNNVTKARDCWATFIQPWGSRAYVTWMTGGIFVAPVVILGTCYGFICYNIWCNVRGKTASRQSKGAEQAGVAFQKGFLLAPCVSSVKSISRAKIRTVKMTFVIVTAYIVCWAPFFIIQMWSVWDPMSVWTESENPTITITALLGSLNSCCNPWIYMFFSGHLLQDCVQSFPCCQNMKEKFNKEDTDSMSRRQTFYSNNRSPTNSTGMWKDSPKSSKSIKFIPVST
T2 sequence (P30518 whole entry): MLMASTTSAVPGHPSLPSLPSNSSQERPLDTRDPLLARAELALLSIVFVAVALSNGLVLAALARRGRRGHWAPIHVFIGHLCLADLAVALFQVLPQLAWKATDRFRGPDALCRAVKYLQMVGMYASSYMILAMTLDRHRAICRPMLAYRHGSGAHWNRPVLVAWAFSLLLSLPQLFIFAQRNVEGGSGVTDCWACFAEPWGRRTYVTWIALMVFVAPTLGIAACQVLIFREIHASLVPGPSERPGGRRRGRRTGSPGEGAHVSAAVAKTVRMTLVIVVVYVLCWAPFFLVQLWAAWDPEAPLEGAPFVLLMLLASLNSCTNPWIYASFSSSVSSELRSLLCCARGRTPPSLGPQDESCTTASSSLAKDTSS

| SMILES | pIC50 [1] | pIC50 [2] |
| --- | --- | --- |
| CC(O)c1nc(Cn2nc(-c3ccc(Cl)cc3)n(C[C@H](O)C(F)(F)F)c2=O)nn1-c1cc(Cl)cc(Cl)c1 (single isomer, unassigned) [Example 48] | 8.49 | 8.62 |
| CC(O)c1nc(Cn2nc(-c3ccc(Cl)cc3)n(C[C@H](O)C(F)(F)F)c2=O)nn1-c1cc(F)cc(Cl)c1 (mixture of isomers) [Example 13, 2-({1-(3-Chloro-5-fluorophenyl)-5-[(1RS)-1-hydroxyethyl]-1H-1,2,4-triazol-3-yl}methyl)-5-(4-chlorophenyl)-4-[(2S)-3,3,3-trifluoro-2-hydroxypropyl]-2,4-dihydro-3H-1,2,4-triazol-3-one] | 8.21 | 8.85 |
| CC(O)c1nc(Cn2nc(-c3ccc(Cl)cc3)n(C[C@H](O)C(F)(F)F)c2=O)nn1-c1cccc(Cl)c1Cl (single isomer, unassigned) [Example 62] | 8.11 | 9.05 |
| CC(O)c1nc(Cn2nc(-c3ccc(Cl)cc3)n(C[C@H](O)C(F)(F)F)c2=O)nn1-c1ccccc1C(F)(F)F (single isomer, unassigned) [Example 74] | 8.66 | 7.61 |
| O=c1n(Cc2nc(CO)n(-c3cc(F)cc(F)c3)n2)nc(-c2ccc(Cl)cc2)n1C[C@H](O)C(F)(F)F [Example 7, 5-(4-Chlorophenyl)-2-{[1-(3,5-difluorophenyl)-5-(hydroxymethyl)-1H-1,2,4-triazol-3-yl]methyl}-4-[(2S)-3,3,3-trifluoro-2-hydroxypropyl]-2,4-dihydro-3H-1,2,4-triazol-3-one] | 8.12 | 8.59 |
| CC(O)c1nc(Cn2nc(-c3ccc(Cl)cc3)n(C[C@H](O)C(F)(F)F)c2=O)nn1-c1ccc(F)cc1Cl (mixture of isomers) [Example 34, 2-({1-(2-Chloro-4-fluorophenyl)-5-[(1RS)-1-hydroxyethyl]-1H-1,2,4-triazol-3-yl}methyl)-5-(4-chlorophenyl)-4-[(2S)-3,3,3-trifluoro-2-hydroxypropyl]-2,4-dihydro-3H-1,2,4-triazol-3-one] | 9.40 | 8.92 |
| CC(O)c1nc(Cn2nc(-c3ccc(Cl)cc3)n(C[C@H](O)C(F)(F)F)c2=O)nn1-c1cc(Cl)ccc1Cl (single isomer, unassigned) [Example 50] | 8.89 | 8.00 |
| CC(O)c1nc(Cn2nc(-c3ccc(Cl)cc3)n(C[C@H](O)C(F)(F)F)c2=O)nn1-c1cccc(Cl)c1Cl (single isomer, unassigned) [Example 63] | 7.29 | 8.72 |
| CC(O)c1nc(Cn2nc(-c3ccc(Cl)cc3)n(C[C@H](O)C(F)(F)F)c2=O)nn1-c1cccc(C(F)F)c1 (single isomer, unassigned) [Example 21] | 7.24 | 8.66 |
| COc1ccc(F)cc1-n1nc(Cn2nc(-c3ccc(Cl)cc3)n(C[C@H](O)C(F)(F)F)c2=O)nc1C(C)O (mixture of isomers) [Example 37, 5-(4-Chlorophenyl)-2-({1-(5-fluoro-2-methoxyphenyl)-5-[(1RS)-1-hydroxyethyl]-1H-1,2,4-triazol-3-yl}methyl)-4-[(2S)-3,3,3-trifluoro-2-hydroxypropyl]-2,4-dihydro-3H-1,2,4-triazol-3-one] | 9.30 | 9.15 |
| CC(O)c1nc(Cn2nc(-c3ccc(Cl)cc3)n(C[C@H](O)C(F)(F)F)c2=O)nn1-c1ccc(F)c(Cl)c1 (single isomer, unassigned) [Example 45] | 7.04 | 8.48 |
| CC(O)c1nc(Cn2nc(-c3ccc(Cl)cc3)n(C[C@H](O)C(F)(F)F)c2=O)nn1-c1ccccc1F (single isomer, unassigned) [Example 41] | 8.74 | 8.10 |
| Cc1cccc(-n2nc(Cn3nc(-c4ccc(Cl)cc4)n(C[C@H](O)C(F)(F)F)c3=O)nc2C(C)O)c1 (single isomer, unassigned) [Example 30] | 7.15 | 9.40 |
| CC(O)c1nc(Cn2nc(-c3ccc(Cl)cc3)n(C[C@H](O)C(F)(F)F)c2=O)nn1-c1cc(Cl)ccc1Cl (single isomer, unassigned) [Example 51] | 8.52 | 7.65 |
| Cc1cccc(-n2nc(Cn3nc(-c4ccc(Cl)cc4)n(C[C@H](O)C(F)(F)F)c3=O)nc2C(C)O)c1 (mixture of isomers) [Example 28, 5-(4-Chlorophenyl)-2-({5-[(1RS)-1-hydroxyethyl]-1-(3-methylphenyl)-1H-1,2,4-triazol-3-yl}-methyl)-4-[(2S)-3,3,3-trifluoro-2-hydroxypropyl]-2,4-dihydro-3H-1,2,4-triazol-3-one] | 8.89 | 9.70 |
| COc1ccccc1-n1nc(Cn2nc(-c3ccc(Cl)cc3)n(C[C@H](O)C(F)(F)F)c2=O)nc1C(C)O (mixture of isomers) [Example 10, 5-(4-Chlorophenyl)-2-({5-[(1RS)-1-hydroxyethyl]-1-(2-methoxyphenyl)-1H-1,2,4-triazol-3-yl}-methyl)-4-[(2S)-3,3,3-trifluoro-2-hydroxypropyl]-2,4-dihydro-3H-1,2,4-triazol-3-one] | 8.85 | 8.85 |
| CC(O)c1nc(Cn2nc(-c3ccc(Cl)cc3)n(C[C@H](O)C(F)(F)F)c2=O)nn1-c1cc(Cl)cc(Cl)c1 (single isomer, unassigned) [Example 47] | 7.72 | 8.43 |
| CC(O)c1nc(Cn2nc(-c3ccc(Cl)cc3)n(C[C@H](O)C(F)(F)F)c2=O)nn1-c1cccc(F)c1F (single isomer, unassigned) [Example 65] | 8.60 | 8.48 |
| COc1ccccc1-n1nc(Cn2nc(-c3ccc(Cl)cc3)n(C[C@H](O)C(F)(F)F)c2=O)nc1C(C)O (single isomer, unassigned) [Example 12] | 8.89 | 8.96 |
| CC(O)c1nc(Cn2nc(-c3ccc(Cl)cc3)n(C[C@H](O)C(F)(F)F)c2=O)nn1-c1ccc(F)cc1Cl (single isomer, unassigned) [Example 35] | 9.30 | 8.80 |
| CC(O)c1nc(Cn2nc(-c3ccc(Cl)cc3)n(C[C@H](O)C(F)(F)F)c2=O)nn1-c1cccc(C(F)(F)F)c1 (single isomer, unassigned) [Example 24] | 6.92 | 8.70 |
| Cc1ccccc1-n1nc(Cn2nc(-c3ccc(Cl)cc3)n(C[C@H](O)C(F)(F)F)c2=O)nc1C(C)O (single isomer, unassigned) [Example 71] | 9.22 | 8.68 |
| CC(O)c1nc(Cn2nc(-c3ccc(Cl)cc3)n(C[C@H](O)C(F)(F)F)c2=O)nn1-c1cc(F)cc(F)c1 (single isomer, unassigned) [Example 26] | 8.51 | 8.52 |
| CC(O)c1nc(Cn2nc(-c3ccc(Cl)cc3)n(C[C@H](O)C(F)(F)F)c2=O)nn1-c1cccc(Cl)c1F (single isomer, unassigned) [Example 53] | 8.10 | 8.74 |
| CC(O)c1nc(Cn2nc(-c3ccc(Cl)cc3)n(C[C@H](O)C(F)(F)F)c2=O)nn1-c1ccc(F)c(Cl)c1 (single isomer, unassigned) [Example 44] | 8.21 | 8.92 |
